According to patent US7638509B2, “Diene compounds and formulations” (priority 2003, dated 2009):
Positions count from the first letter of the chain named.

Columns and labels:
mutant AR = target: T1, mutant AR (Homo sapiens, UniProt P10275, T878A); experiment: AR transcription, MMTV-Luc reporter in LNCaP cells; type: cell-based
T1 construct: LNCaP without transfection; endogenous in cells; host or cells: LNCaP
T1 sequence (P10275 1-920 T878A): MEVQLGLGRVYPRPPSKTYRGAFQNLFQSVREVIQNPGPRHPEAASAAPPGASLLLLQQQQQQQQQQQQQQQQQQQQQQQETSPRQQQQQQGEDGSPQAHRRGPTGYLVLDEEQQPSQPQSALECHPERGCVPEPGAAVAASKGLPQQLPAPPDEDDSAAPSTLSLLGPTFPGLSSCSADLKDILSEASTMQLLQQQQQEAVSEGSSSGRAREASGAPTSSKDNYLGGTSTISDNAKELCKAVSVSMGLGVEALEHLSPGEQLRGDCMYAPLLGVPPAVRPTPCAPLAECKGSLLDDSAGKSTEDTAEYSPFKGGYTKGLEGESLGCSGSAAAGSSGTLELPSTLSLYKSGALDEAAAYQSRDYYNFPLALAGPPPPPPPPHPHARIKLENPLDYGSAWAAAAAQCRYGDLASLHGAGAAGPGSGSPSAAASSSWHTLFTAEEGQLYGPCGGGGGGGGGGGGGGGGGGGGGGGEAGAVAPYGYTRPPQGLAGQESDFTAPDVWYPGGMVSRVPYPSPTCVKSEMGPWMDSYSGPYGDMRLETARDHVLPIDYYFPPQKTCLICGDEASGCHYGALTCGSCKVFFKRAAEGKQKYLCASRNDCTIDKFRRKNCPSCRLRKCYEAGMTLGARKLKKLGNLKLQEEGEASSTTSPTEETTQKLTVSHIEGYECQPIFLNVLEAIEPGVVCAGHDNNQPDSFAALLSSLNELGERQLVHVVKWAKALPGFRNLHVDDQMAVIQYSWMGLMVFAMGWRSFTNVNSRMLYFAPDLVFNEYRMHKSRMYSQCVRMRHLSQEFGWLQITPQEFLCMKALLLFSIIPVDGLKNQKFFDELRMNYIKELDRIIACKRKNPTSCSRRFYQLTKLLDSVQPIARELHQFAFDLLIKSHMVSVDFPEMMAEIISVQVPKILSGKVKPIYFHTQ
Description: (§1) Cell Culture, Transfection, and Reporter Gene Assay. The human prostate cancer cell lines, LNCaP, PC-3, and DU145, and non-prostate cancer cell line COS-1 were maintained in RPMI or Dulbecco's modified Eagle's medium (DMEM) (Life Technologies) supplemented with 10% fetal bovine serum (FBS). […] Briefly, cells seeded to reach a density of 50-60% confluence in 12 well tissue culture plates were transfected with 1.5 μg of DNA according to “SuperFect transfection” instructions (Qiagen). After 2-3 h incubation, cells were treated with medium supplemented with charcoal-stripped FBS containing either ethanol or ligands for 24 h. The cells were then harvested and whole cell extracts were used for Luc assay. The Luc activity was determined using a Dual-Luciferase Reporter Assay System (Promega) and luminometer.
(§2) The pSG5-AR was co-transfected in COS-1 cells. […] Values were obtained from the mean±SD of at least three determinations. DU145 cells were transfected with the pSG5-AR and MMTV-Luc in the presence or absence of pSG5-ARA70. […] Values were obtained for the mean±SD of at least three determinations.

PSA = PSA expression in LNCaP cells, Western blot; type: cell-based, human; settings: 48 h, 1 nM DHT or 1 μM HF, casodex, ADEK in absence of DHT
Description: Western Blot. […] An antibody for -actin (Santa Cruz Biotechnology) was used as the internal control. Blots were quantitated by Collage software (Fotodyne).
The 33-kDa protein was quantitated. β-Actin expression was used as an internal control. […] The mean±SD of three separate experiments was determined. […] Total cell number was counted by hemocytometer. The mean of at least three determinations was determined.

AR [1] = target: T2, AR (Homo sapiens, UniProt P10275, T878A); experiment: Competitive [3H]-R1881 ligand binding assay, LNCaP whole cell extracts; settings: 1 nM [3H]-R1881, unlabeled ligand 1-10,000 nM, relative to DHT
T2 construct: LNCaP without transfection; endogenous in cells; host or cells: LNCaP
T2 sequence (P10275 1-920 T878A): T1 sequence (P10275 1-920 T878A)
Description: (§3) Ligand Binding Assay. Whole cell extracts from COS-1 with transient transfection of pSG5-AR, or LNCaP without transfection, were incubated for 2 h at 37° C. with 1 nM [^3H]-synthetic androgen methyltrienolone (R1881) in the presence and absence of increasing concentrations (1-10,000 nM) of unlabeled ligands. Then, hydroxyapatite (Bio-Rad) was added and stirred for 15 min at 4° C. After centrifugation and washing, radioactivity was determined by scintillation counting.
(§4) Clinically available antiandrogens have an affinity for the AR, allowing a competition with androgens for binding. To determine whether ADEK has this common feature of AR antagonists, the competitive androgen binding assay was performed.

AR [2] = target: T2, AR; experiment: Adiol-induced AR transcription, MMTV-Luc in LNCaP cells; type: cell-based; settings: 2.5 nM Adiol, compound at 1 μM
Description: (§5) Cell Culture, Transfection, and Reporter Gene Assay. The human prostate cancer cell lines, LNCaP, PC-3, and DU145, and non-prostate cancer cell line COS-1 were maintained in RPMI or Dulbecco's modified Eagle's medium (DMEM) (Life Technologies) supplemented with 10% fetal bovine serum (FBS). Transfections and luciferase (Luc) assays were performed as previously described (Miyamoto, H., Yeh, S., Wilding, G. & Chang, C. (1998) Proc. Natl. Acad. Sci. USA 95, 7379-7384; Miyamoto, H., Rahman, M., Takatera, H., Kang, H.-Y., Yeh, S., Chang, H.-C., Nishimura, K., Fujimoto, N. & Chang, C. (2002) J. Biol. Chem. 277, 4609-4617). Briefly, cells seeded to reach a density of 50-60% confluence in 12 well tissue culture plates were transfected with 1.5 μg of DNA according to “SuperFect transfection” instructions (Qiagen). After 2-3 h incubation, cells were treated with medium supplemented with charcoal-stripped FBS containing either ethanol or ligands for 24 h. The cells were then harvested and whole cell extracts were used for Luc assay. The Luc activity was determined using a Dual-Luciferase Reporter Assay System (Promega) and luminometer.
(§6) Effect of ADEK on AR Transcription. […] (set as 100%). Values were obtained from the mean±SD of at least three determinations.

wild-type AR [3] = target: T3, wild-type AR (Homo sapiens, UniProt P10275); experiment: Adiol-induced AR transcription, MMTV-Luc in PC-3 cells with pSG5-AR; type: cell-based; parameters: expressed in transfected cells; host or cells: PC-3; settings: PC-3, 2.5 nM Adiol, compound at 1 μM
T3 sequence (P10275 1-920): T1 sequence (P10275 1-920 T878A) with A878T
Description: as §5, §6

wild-type AR [4] = target: T3, wild-type AR; experiment: AR transcription, MMTV-Luc reporter in COS-1 cells co-transfected with pSG5-AR; type: cell-based; parameters: expressed in transfected cells; host or cells: COS-1; settings: COS-1, 1 nM DHT
Description: as §1, §2

wild-type AR [5] = target: T3, wild-type AR; experiment: Competitive [3H]-R1881 ligand binding assay, extracts of COS-1 transfected with wild-type AR; parameters: expressed in transfected cells; host or cells: COS-1; settings: 1 nM [3H]-R1881, unlabeled ligand 1-10,000 nM, relative to DHT
Description: as §3, §4

## CC(C)(O)C(=O)Nc1ccc([N+](=O)[O-])c(C(F)(F)F)c1 [HF, hydroxyflutamide, reference compound]
Mutant AR; 10 μM
  suppression of DHT-induced mutant AR transcription (in words): no suppression
Mutant AR; MMTV-Luc, HF at 10 μM
  agonist / androgenic activity on mutant AR transcription (in words): full agonist
PSA
  endogenous PSA expression over mock treatment: 3.5 fold
AR [1]
  RBA in LNCaP: 23.0
AR [2]
  block of Adiol-induced AR transcription (in words): failed to significantly block
wild-type AR [3]
  block of Adiol-induced AR transcription (in words): failed to significantly block
wild-type AR [4]
  suppression of DHT-induced wild-type AR transcription compared with ADEK at 1 μM (21%), in words: similar
wild-type AR [5]
  RBA in COS-1 with AR: 17.1
